Columns and labels:
[1] = test system: CTG-0256 human ovarian xenograft; assay: CTG-0256 xenograft model, Compound 1 and carboplatin; type: in vivo, Mus musculus/nu/nu mice; settings: for Volume Tumor Day 14: in mm³ (unit assumed)
Excerpt: The CTG-0256 model of human ovarian xenograft model was established from a patient-derived tumor collected during surgery at primary site from a person with ovarian cancer (serous adenocarcinoma with resistant response to carboplatin or paclitaxel). CTG-0256 tumor fragments (approximately 2×2×3 mm^3) were implanted into the subcutaneous space in the right dorsal flank of female Mus musculus/nu/nu mice (age 6-9 weeks, Harlan Laboratories, Madison, Wis.) using a 13-gauge trocar. When the mean tumor volume reached approximately 150 mm^3, the animals were randomized into 7 treatment groups (n=7/group).
Carboplatin (Teva Pharmaceuticals) is formulated in 0.9% saline and administered by IP injection once weekly (QW) at 25, 50, 60, and 75 mg/kg. The once weekly schedule is also described as every 7 days (Q7D).
(§1) Compound 1 [((1R,2R,3S,4R)-2,3-dihydroxy-4-(2-(3-(trifluoromethylthio)-phenyl)pyrazolo[1,5-a]pyrimidin-7-ylamino)cyclopentyl)methyl sulfamate] is formulated in 10-20% HPbCD in sterile water and administered intravenously (IV) or subcutaneously (SC) on a BIW (twice/week schedule; Monday and Thursday or Tuesday and Friday) for either 2-4 weeks.
(§2) Tumors were measured twice weekly using vernier calipers. Tumor volumes were calculated using the standard formula V=W^2×L/2,). When mean tumor volumes reached approximately 200 mm^3 for PHTX-24C, 220 mm^3 for PHTX-Lu132, 150 mm^3 for CTG-0256, 260 mm^3 for CTG-0486, 185 mm^3 for PHTX-17C, 260 mm^3 for CTG-0165, 150 mm^3 for PHTX-14B in the study of Compound 1 and paclitaxel, 180 mm^3 for PHTX-14B in the study of Compound 1 and docetaxel, 200 mm^3 for SKOV-3, 220 mm^3 for PHTX-02B in the study of Compound 1 and docetaxel, 250 mm^3 for PHTX-02B in the study of Compound 1 and paclitaxel, 195 mm^3 for CTG-0159, 180 mm^3 for CTG-0012 or 150 mm^3 for Calu-6, mice were randomized into groups of n=5-7/arm as described in the tables below, and injected with vehicle, Compound 1 or agents (docetaxel, paclitaxel, oxaliplatin, cisplatin or carboplatin), or the combination of Compound 1 plus one of the agents, at various doses and schedules as described in tables below. Tumor size and body weight were measured approximately twice a week for the duration of the study. Mice are euthanized when their tumor volume reached 10% of their body weight, or when the average tumor volume of a treatment or control group reached approximately 2000 mm^3. Tumor growth continued to be monitored after the dosing period in some studies. Average tumor volume is reported as a function of time for selected arms of selected studies in the Figures.
(§3) Measurements from day 0 to day 14, day 19, day 21, or day 28 are analyzed as specified in Tables below. All tumor volumes have a value of 1 added to them before log10 transformation. For each animal, the log tumor volume at day 0 is subtracted from the log tumor volume on the subsequent days. This difference vs. time is used to calculate an area under the curve (AUC) for each animal using the trapezoid rule. […] The synergy score for the combination of agents A and B is defined as
(§4) 100*(mean(AUCAB)−mean(AUCA)−mean(AUCB)+mean(AUCctl))/mean(AUCctl):
(§5) where AUCAB, AUCA, AUCB, and AUCctl are the AUC values for animals in the combination group, the A group, the B group, and the control group, respectively. The standard error of the synergy score is computed based on the variation in the AUC values among the animals. […] If the P-value is above 0.05, then the combination is considered to be additive. If the P-value is below 0.05, and the synergy score is less than zero, then the combination is considered to be synergistic.

[2] = test system: CTG-0165 human lung NSCLC xenograft; assay: CTG-0165 xenograft model, Compound 1 and cisplatin; type: in vivo, Mus musculus/nu/nu mice; settings: for Tumor Volume Day 21: in mm³ (unit assumed)
Description: CTG-0165 tumor fragments (approximately 2×2×3 mm^3) were implanted into the subcutaneous space in the right dorsal flank of female Mus musculus/nu/nu mice (age 6-9 weeks, Harlan Laboratories, Madison, Wis., USA) using a 13-gauge trocar. When the mean tumor volume reached approximately 260 mm^3, the animals were randomized into 8 treatment groups (n=5/group).
Cisplatin (Teva Pharmaceuticals) is formulated in 0.9% saline and administered by IV injection once weekly (QW) at 7.5 mg/kg. The once weekly schedule is also described as every 7 days (Q7D).
as §1, §2, §3, §4, §5

[3] = test system: PHTX-14B breast xenograft; assay: PHTX-14B xenograft model, Compound 1 and docetaxel; type: in vivo, nude mice; settings: for Tumor Volume Day 28: in mm³ (unit assumed)
Description: Docetaxel (Henry Schein, Inc., Pittsburgh Pa.) is formulated in 0.9% saline and administered by intravenous injection (IV) once weekly (QW) at 5 mg/kg or 10 mg/kg. […] Tumors were measured twice weekly using vernier calipers.

[4] = single agent Compound 1 IV at 20, 15, 6.25 mg/kg BIW

NS(=O)(=O)OC[C@H]1C[C@@H](Nc2ccnc3cc(-c4cccc(SC(F)(F)F)c4)nn23)[C@H](O)[C@@H]1O [Compound 1, ((1R,2R,3S,4R)-2,3-dihydroxy-4-(2-(3-(trifluoromethylthio)phenyl)pyrazolo[1,5-a]pyrimidin-7-ylamino)cyclopentyl)methyl sulfamate]
Volume Tumor Day 14 ([1]; 6.25 mg/kg Compound 1 BIWx2 IV): 1291.5 | Volume Tumor Day 14 ([1]; 15 mg/kg Compound 1 BIWx2 IV): 1638.6 | Volume Tumor Day 14 ([1]; 20 mg/kg Compound 1 BIWx2 IV): 1406.7 | anti-tumor activity compared to vehicle control [1, 4]: modest to weak anti-tumor activity | Tumor Volume Day 21 ([2]; 6.25 mg/kg Compound 1 BIWx3 IV): 988.8 | Tumor Volume Day 21 ([2]; 15 mg/kg Compound 1 BIWx3 IV): 1624.9 | Tumor Volume Day 21 ([2]; 20 mg/kg Compound 1 BIWx3 IV): 1476.3 | anti-tumor activity compared to vehicle control [2, 4]: modest to weak anti-tumor activity | Tumor Volume Day 28 ([3]; 10 mg/kg Compound 1 BIWx3 SC): 499.4 | Tumor Volume Day 28 ([3]; 20 mg/kg Compound 1 BIWx3 SC): 399.4 | tumor growth compared to the vehicle control group ([3]; single agent Compound 1 SC at 20 and 10 mg/kg BIW): inhibited tumor growth
